Converted amounts (≈) assume the structure as drawn.
What was measured:
Colinus virginianus = settings: mortality
Oncorhynchus mykiss = settings: acute; duration: 96 hours; mortality
Canidae = settings: chronic; duration: 1 years; oral; Dog Other; body weight
Folsomia candida = settings: chronic/long-term; duration: 28 days
Myriophyllum aquaticum = settings: chronic/long-term; duration: 7 days; growth
Daphnia magna = settings: chronic/long-term; duration: 21 days
Pimephales promelas = settings: chronic/long-term; duration: 32 days
Typhlodromus pyri = experiment: LR50; higher = less toxic; settings: not reported; mortality
Apis mellifera = settings: acute, mortality

| Compound | LD50 (Rattus norvegicus; acute, oral, M/F, mortality) [mg/kg] | NOAEL (Rattus norvegicus; chronic, duration: 2 years, body weight) [mg/kg-day] | NOAEL (Rattus norvegicus; reproduction developmental, body weight) [mg/kg-day] | NOAEL (Rattus norvegicus; short-term, duration: 28 days, inhalation) [mg/kg-day] | LD50 (Colinus virginianus; acute, oral) [mg/kg] | NOEC (Colinus virginianus; chronic) [mg/kg-day] | LC50 (Oncorhynchus mykiss) [µg/mL] | NOAEL (Canidae) [mg/kg-day] | NOEC (Folsomia candida) [mg/kg] | NOEC (Myriophyllum aquaticum) [mg/L] | NOEC (Daphnia magna) [mg/L] | NOEC (Pimephales promelas) [mg/L] | LR50 (Typhlodromus pyri) [g/ha] | LD50 (Apis mellifera; dermal) [µg/piece] | LD50 (Apis mellifera; oral, unspecified) [µg/piece] |
| --- | --- | --- | --- | --- | --- | --- | --- | --- | --- | --- | --- | --- | --- | --- | --- |
| O=c1ccc(=O)[nH][nH]1 [Maleic hydrazide] | > 2000 | 25 | 398 | 22 | > 1490 | 542 | 79.4 (≈ 708 µM) | 25 | 113 | 3.2 | 0.57 | 9.6 | < 3000 | – | – |
| O=C1CC=C([O-])N=N1.[K+] [Maleic hydrazide, potassium salt] | – | – | – | – | – | – | – | – | – | – | – | – | – | > 100 | > 100 |
